Data taken from patent US5770617A, “Terbenzimidazoles useful as antifungal agents” (Rutgers, The State University of New Jersey, priority 1997, dated 1998).
Entries after “also recorded” stand apart in the source; their conditions may differ. Each block holds one compound with its values, some of them ahead of it.

Columns and labels:
[1] = test system: human lymphoblast RPMI 8402; assay: MTT cytotoxicity assay, RPMI 8402; type: cell-based
Procedure: The cytotoxicity was determined using the as MTT-microtiter plate tetrazolinium cytotoxicity assay (MTA) following the procedures of F. Denizot et al., J. Immunol. Methods, 89, 271 (1986); J. Carmichael et al., Cancer Res, 47, 936 (1987) and T. J. Mosmann et al., Immunol. Methods, 65, 55 (1983). The human lymphoblast RPMI 8402 and its camptothecin-resistant variant cell line, CPT-K5 were provided by Dr. Toshiwo Andoh (Aichi Cancer Center Research Institute, Nagoya, Japan). See, for example, T. Andoh et al., Adv. Pharmacol., 29B, 93 (1994). The cytotoxicity assay was performed using 96-well microtiter plates. Cells were grown in suspension at 37 ° C. in 5% CO2 and maintained by regular passage in RPMI medium supplemented with 10% heat inactivated fetal bovine serum, L-glutamine (2 mM), penicillin (100 U/ml), and streptomycin (0.1 mg/ml). For determination of IC50, cells were exposed continuously with varying concentrations of drug concentrations and MTT assays were performed at the end of the fourth day.

[2] = biological target: T1, calf thymus topoisomerase I (Bos taurus, UniProt F1MN93); assay: Topoisomerase I-mediated DNA cleavage assay (calf thymus enzyme); type: biochemical; details: for Topo I-mediated DNA cleavage (REC, Relative Effective Concentration): concentration relative to Hoechst 33342 (arbitrarily 1) producing the same cleavage on plasmid DNA, calf thymus topoisomerase I
T1 construct: DNA topoisomerase I was purified from calf thymus gland as reported previously; from tissue; host or cells: calf thymus gland
T1 sequence (F1MN93 1-767): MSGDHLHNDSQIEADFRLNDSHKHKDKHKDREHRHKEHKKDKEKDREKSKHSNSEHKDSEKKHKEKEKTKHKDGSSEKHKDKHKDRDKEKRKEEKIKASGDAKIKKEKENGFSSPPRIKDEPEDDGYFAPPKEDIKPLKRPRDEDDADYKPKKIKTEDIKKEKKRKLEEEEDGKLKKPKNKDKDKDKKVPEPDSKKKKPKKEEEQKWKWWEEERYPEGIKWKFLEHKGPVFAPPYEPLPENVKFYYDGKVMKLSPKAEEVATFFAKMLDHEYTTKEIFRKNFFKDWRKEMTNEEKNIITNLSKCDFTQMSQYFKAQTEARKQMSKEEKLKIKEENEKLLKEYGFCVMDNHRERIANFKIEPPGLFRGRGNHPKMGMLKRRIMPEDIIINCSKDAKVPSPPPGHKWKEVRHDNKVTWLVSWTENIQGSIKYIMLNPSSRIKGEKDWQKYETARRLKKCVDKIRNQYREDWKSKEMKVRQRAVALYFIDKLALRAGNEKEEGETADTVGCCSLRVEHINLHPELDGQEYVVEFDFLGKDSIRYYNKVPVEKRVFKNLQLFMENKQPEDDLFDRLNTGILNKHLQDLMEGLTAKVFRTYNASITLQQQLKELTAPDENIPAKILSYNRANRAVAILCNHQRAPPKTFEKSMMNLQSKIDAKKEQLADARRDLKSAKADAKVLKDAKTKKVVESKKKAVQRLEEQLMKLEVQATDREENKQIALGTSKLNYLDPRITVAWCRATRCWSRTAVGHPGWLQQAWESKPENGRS
Description: A. Topoisomerase I-Mediated DNA Cleavage Assays
DNA topoisomerase I was purified from calf thymus gland as reported previously by B. D. Halligan et al., J. Biol. Chem., 260, 2475 (1985).
Plasmid YEpG was also purified by the alkali lysis method followed by phenol deproteination and CsCl/ethidium isopycnic centrifugation as described by T. Maniatis et al., Molecular Cloning, A Laboratory Manual, Cold Spring Harbor Labs, N.Y. (1982) at pages 149-185. The end-labeling of the plasmid was accomplished as previously described by L. F. Liu et al., J. Biol. Chem., 258, 15365 (1983). The cleavage assays were performed as previously reported by A. Y. Chen et al., Cancer Res., 53, 1332 (1993). Human topoisomerase I was isolated as a recombinant fusion protein using a T7 expression system.

[3] = test system: yeast cells expressing yeast topoisomerase I; assay: Yeast cytotoxicity assay, yeast topoisomerase I; type: cell-based, S. cerevisiae
Description: (§1) The topoisomerase I-specific in vivo cytotoxicity assay was adapted from A. M. Knab et al., J. Biol. Chem., 268, 22322 (1993). In this system, various topoisomerase I genes or cDNAs cloned into the single-copy yeast plasmid vector (YCpGAL1; Knab et al., cited above) are expressed under the control of the GAL1 promoter in the JN2-134 strain of S. cerevisiae (MAT, rad52::Leu2, trp1, ade2-1, his7, ura3-52, ise1, top1-1, and leu2; M. A. Bjornsti et al., Cancer Res., 49, 6318 (1989)). The topoisomerase I gene or cDNA constructs in the vector are, respectively, the wild-type yeast topoisomerase I gene (YCpGAL-ScTOP1; need cite (1989)), a nonfunctional topoisomerase I gene where the active site tyrosine-727 is mutated to phenylalanine (YCPGAL1-Sctop1Y727; A. M. Knab et al., J. Biol. Chem., 268, 22322 (1993)), and the wild-type human topoisomerase I cDNA (YCp-GAL-hTOP1; M. A. Bjornsti et al., Cancer Res., 49, 6318 (1989)).
(§2) To qualitatively test the cytotoxicity and the topoisomerase I specificity of the drugs, yeast cells containing the specified plasmid were grown in dropout medium supplemented with uracil, 2% galactose, and the drug being tested.

[4] = biological target: T2, Aspergillus topoisomerase I (Aspergillus nidulans, UniProt Q5BGS7); assay: Topoisomerase I cleavage assay, Aspergillus enzyme; type: biochemical; details: DNA cleavage assay
T2 construct: about 105 kDa by phosphate transfer
T2 sequence (Q5BGS7 1-871): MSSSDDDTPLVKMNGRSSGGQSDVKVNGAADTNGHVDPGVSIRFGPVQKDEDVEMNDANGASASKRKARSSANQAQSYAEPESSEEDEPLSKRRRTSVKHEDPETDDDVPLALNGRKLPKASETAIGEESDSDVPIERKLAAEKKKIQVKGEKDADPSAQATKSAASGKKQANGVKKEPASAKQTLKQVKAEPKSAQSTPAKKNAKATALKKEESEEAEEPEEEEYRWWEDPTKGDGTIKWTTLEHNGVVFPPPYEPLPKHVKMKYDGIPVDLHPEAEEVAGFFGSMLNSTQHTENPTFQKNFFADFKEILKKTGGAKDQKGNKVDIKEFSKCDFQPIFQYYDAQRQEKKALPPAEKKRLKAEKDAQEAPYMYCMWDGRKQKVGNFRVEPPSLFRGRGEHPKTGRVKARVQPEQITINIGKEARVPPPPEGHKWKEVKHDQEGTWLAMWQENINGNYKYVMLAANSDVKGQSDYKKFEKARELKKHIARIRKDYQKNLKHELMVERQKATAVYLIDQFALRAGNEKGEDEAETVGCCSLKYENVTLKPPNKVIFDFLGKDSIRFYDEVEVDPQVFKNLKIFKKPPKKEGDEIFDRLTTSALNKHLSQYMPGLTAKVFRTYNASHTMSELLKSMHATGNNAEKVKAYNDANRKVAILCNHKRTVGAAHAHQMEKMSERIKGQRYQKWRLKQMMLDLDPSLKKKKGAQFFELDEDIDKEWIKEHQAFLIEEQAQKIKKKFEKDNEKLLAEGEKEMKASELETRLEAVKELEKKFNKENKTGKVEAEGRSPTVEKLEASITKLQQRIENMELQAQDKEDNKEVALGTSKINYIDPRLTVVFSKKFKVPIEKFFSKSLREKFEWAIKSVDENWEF
Procedure: Two liters of YG medium (0.5% yeast extract and 2% glucose) were inoculated with approximately 5×10^8 conidia/ml. After 16 hours of growth at 37° C., the mycelia were collected, washed with Buffer I (50 mM Tris-HCl, pH 7.7, 1 mM EDTA, 1 mM EGTA, 10% glycerol, 1 mM phenylmethylsulfonyl fluoride and 1 mM 2-mercaptoethanol), and quickly chilled in liquid nitrogen. The frozen mycelia (approximately 20 grams) were ground to powder and resuspended in 300 ml of Buffer I. The lysate was centrifuged at 10K rpm in a Sorval HB3 Rotor for 15 minutes to remove cell debris. The supernatant was made 6% in polyethylene glycol (v/v) and 1M NaCl. After one hour on ice with gentle stirring, the solution was centrifuged at 14K rpm in a Sorvall Rotor for 30 minutes to remove nucleic acids.
Subsequent steps in purification were the same as described previously for purification of recombinant human DNA topoisomerase I (B. Gatto et al., Cancer Res., 56, 2795 (1996)). Briefly, the supernatant was chromatographed directly onto a hydroxyapatite Bio-gel HTP (BioRad Laboratories, Richmond, Calif.) column. Fractions containing relaxation activity were pooled, diluted and then loaded onto a BioRex70 column (BioRad Laboratories, Richmond, Calif.). The column was developed with a linear gradient from 0.2 to 1M KCl. The peak fractions were pooled and dialyzed overnight at 4° C. against 30 mM potassium phosphate, 50% glycerol (v/v), 0.5 mM EDTA, and 1 mM DTT. Recombinant human topoisomerase I was purified from Escherichia coli BL21 (DE3) harboring PET1B as described previously (Gatto et al., Cancer Res., 56, 2795 (1996)).
DNA topoisomerase I cleavage assays were performed as described by Y.-H. Hsiang et al., J. Biol. Chem., 260, 14873 (1985). YEpG DNA was linearized with BamHI and then 3 '-end-labeled with Klenow polymerase and α[-^32 P]dCTP. Following phenol extraction and ethanol precipitation, the labeled DNA was resuspended in 10 mM Tris, pH 8.0, and 1 mM EDTA. The DNA cleavage assay was done in a reaction mixture (20 μl) containing 40 mM Tris-HCl, pH 7.8, 100 mM KCl, 10 mM MgCl2, 0.5 mM dithiothreitol, 0.5 mM EDTA, 30 μg/ml bovine serum albumin, 20 ng of labeled YEpG DNA, and […] of Aspergillus or human topoisomerase I diluted to various extents. Following incubation at 23° C. for 15 minutes, the reactions were terminated by the addition of SDS (final concentration 1%) and proteinase K (final concentration 200 μg/ml). Proteinase K treatment continued at 37° C. for another 1 hour. The terminated reactions were either alkali-denatured and then loaded (alkaline loading) or loaded directedly in neutral loading buffer (neutral loading) onto a 1% agarose gel in neutral TPE electrophoresis solution. Gel drying and autoradiography were performed as described by Hsiang et al., cited above.

[5] = biological target: T3, human topoisomerase I (Homo sapiens, UniProt P11387); details: cited from earlier work
T3 construct: made in house; host or cells: Escherichia coli BL21 (DE3) harboring PET1B
T3 sequence (P11387 1-765): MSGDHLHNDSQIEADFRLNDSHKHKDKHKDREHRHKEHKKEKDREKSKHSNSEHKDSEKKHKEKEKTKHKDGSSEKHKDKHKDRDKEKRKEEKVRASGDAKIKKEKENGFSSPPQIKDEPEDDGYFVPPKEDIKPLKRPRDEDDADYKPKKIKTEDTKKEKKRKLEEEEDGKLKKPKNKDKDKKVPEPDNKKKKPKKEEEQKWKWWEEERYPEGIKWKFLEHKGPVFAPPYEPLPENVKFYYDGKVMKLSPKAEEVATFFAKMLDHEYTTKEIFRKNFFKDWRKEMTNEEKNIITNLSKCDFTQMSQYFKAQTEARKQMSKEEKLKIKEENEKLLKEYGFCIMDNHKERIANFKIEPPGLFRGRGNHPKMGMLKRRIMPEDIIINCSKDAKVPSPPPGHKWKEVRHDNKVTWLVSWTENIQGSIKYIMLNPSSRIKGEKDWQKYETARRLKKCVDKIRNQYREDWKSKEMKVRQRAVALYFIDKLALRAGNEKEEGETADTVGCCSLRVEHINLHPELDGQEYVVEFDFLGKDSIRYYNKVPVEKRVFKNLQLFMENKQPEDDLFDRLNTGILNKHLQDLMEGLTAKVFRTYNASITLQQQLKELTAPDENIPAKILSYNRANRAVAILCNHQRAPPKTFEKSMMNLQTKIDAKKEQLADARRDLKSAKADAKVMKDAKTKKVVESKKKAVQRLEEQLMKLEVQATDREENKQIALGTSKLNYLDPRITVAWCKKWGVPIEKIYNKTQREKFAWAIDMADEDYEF

[6] = test system: yeast cells expressing human topoisomerase I; assay: Yeast cytotoxicity assay, human topoisomerase I; type: cell-based, S. cerevisiae
Description: as §1, §2

[7] = test system: yeast cells expressing nonfunctional yeast topoisomerase I; assay: Yeast cytotoxicity assay, nonfunctional yeast topoisomerase I; type: cell-based, S. cerevisiae
Description: as §1, §2

[8] = biological target: T4, mammalian DNA topoisomerase I (Homo sapiens, UniProt P11387); details: cited from earlier work
T4 sequence (P11387 1-765): T3 sequence (P11387 1-765)

Topo I-mediated DNA cleavage (REC, Relative Effective Concentration) [2]: 1
Structure (SMILES): Brc1ccc2[nH]c(-c3ccc4[nH]c(-c5ccc6[nH]cnc6c5)nc4c3)nc2c1 [JSKIV-37, 5-Bromo-2-[2'-(benzimidazol-5"-yl)benzimidazol-5'-yl]-benzimidazole]
IC50 ([1]; Homo sapiens, RPMI 8402, 96 h, read-out: Cytotoxicity IC50 RPMI): 1.4 µM

potency as topoisomerase I inhibitor compared with Hoechst 33342, in words [2]: much less active | Topo I-mediated DNA cleavage (REC, Relative Effective Concentration) [2]: 100
Structure (SMILES): CCCc1ccc2[nH]c(-c3ccc4[nH]c(-c5ccc6[nH]cnc6c5)nc4c3)nc2c1 [Compound 12, 5-Propyl-2-[2'-(benzimidazol-5"-yl)benzimidazol-5'-yl]benzimidazole]
cytotoxicity towards RPMI 8402, in words [1]: weak cytotoxicity

Structure (SMILES): COc1cc2c[n+](C)c3c4cc5c(cc4ccc3c2cc1OC)OCO5 [nitidine]
cytotoxicity to yeast cells expressing functional yeast topoisomerase I [3]: not cytotoxic | inhibition (poisoning) of Aspergillus topoisomerase I, in words [4]: completely resistant; also recorded: did not inhibit Aspergillus topoisomerase I to any significant extent | inhibition of human topoisomerase I, in words (known / previously disclosed) [5]: highly potent inhibitors | cytotoxicity to yeast cells expressing human topoisomerase I [6]: highly cytotoxic | cytotoxicity to yeast cells expressing nonfunctional yeast topoisomerase I [7]: not cytotoxic

Structure (SMILES): O=[N+]([O-])c1ccc2nc(-c3ccc(O)cc3)[nH]c2c1 [QS/II/51]
inhibition (poisoning) of Aspergillus topoisomerase I, in words [4]: None of the mono-benzimidazoles, including QS/II/50, QS/II/51, QS/II/59A, an QS/II/9, exhibited any inhibitory effect | inhibition (poisoning) of mammalian DNA topoisomerase I, previous studies [8]: inhibitors (poisons)
